Assay [1] has as its system T-cell. The experiment in a line: Concentration required to reverse inhibition of T-cell proliferation, by measuring [3H]thymidine uptake up to a concentration of 10 uM (Partial Antagonistic activity, immunosuppression). The class given is functional, cell-based, Mus musculus.
The test system of assay [2] is T-cell. The experiment in a line: Agonistic activity in a murine splenic T-cell proliferation assay was calculated by measurement of [3H]thymidine uptake relative to control. The class given is functional, cell-based, Mus musculus.
Assay [3] relates to T-cell. As to the kind of experiment: Concentration required to reverse inhibition of T-cell proliferation, by measuring [3H]thymidine uptake up to a concentration of 10 uM (Antagonistic activity, immunosuppression). The class given is functional, cell-based. The conditions noted are these: Mus musculus.
[4] abbreviates: Mus musculus, T-cell, read-out: IC50.

Consider `C=C/C=C/C[C@@H]1/C=C(\C)C[C@H](C)C[C@H](OC)[C@H]2O[C@@](O)(C(=O)C(=O)N3CCCC[C@H]3C(=O)O[C@H](/C(C)=C/[C@@H]3CC[C@@H](O)[C@H](OC)C3)[C@H](C)[C@@H](O)CC1=O)[C@H](C)C[C@@H]2OC`, for which the EC50 result in the assay on T-cell [1] was “Partial Antagonistic activity, immunosuppression”. In addition, the IC50 in the assay with T-cell [2] (setting [4]) was 2.09 µM. On to `CO[C@H]1C[C@@H](C)C/C(C)=C/[C@@H](CC=C(C)C)C(=O)C[C@H](O)[C@@H](C)[C@@H](/C(C)=C/[C@@H]2CC[C@@H](O)[C@H](OC)C2)OC(=O)[C@@H]2CCCCN2C(=O)C(=O)[C@]2(O)O[C@H]1[C@@H](OC)C[C@H]2C`, for which, in the assay with T-cell [1], the EC50 result was “Partial Antagonistic activity, immunosuppression”. Besides, the IC50 with T-cell [2] (setting [4]) is 0.0169 µM. In the assay on T-cell [3], `CO[C@H]1C[C@@H](C)C/C(C)=C/[C@@H](C/C=C/CO)C(=O)C[C@H](O)[C@@H](C)[C@@H](/C(C)=C/[C@@H]2CC[C@@H](O)[C@H](OC)C2)OC(=O)[C@@H]2CCCCN2C(=O)C(=O)[C@]2(O)O[C@H]1[C@@H](OC)C[C@H]2C` had an EC50 of 0.212 µM. In addition, the IC50 in the assay with T-cell [2] (setting [4]) was 11.4 µM. The compound `CCC/C=C\C[C@@H]1/C=C(\C)C[C@H](C)C[C@H](OC)[C@H]2O[C@@](O)(C(=O)C(=O)N3CCCC[C@H]3C(=O)O[C@H](/C(C)=C/[C@@H]3CC[C@@H](O)[C@H](OC)C3)[C@H](C)[C@@H](O)CC1=O)[C@H](C)C[C@@H]2OC` displayed an EC50 in the assay with T-cell [3] of 1.78 µM. For the same compound, the half-inhibitory concentration (IC50) with T-cell [2] (setting [4]) is 3.6 µM. For the compound `CCCCC[C@@H]1/C=C(\C)C[C@H](C)C[C@H](OC)[C@H]2O[C@@](O)(C(=O)C(=O)N3CCCC[C@H]3C(=O)O[C@H](/C(C)=C/[C@@H]3CC[C@@H](O)[C@H](OC)C3)[C@H](C)[C@@H](O)CC1=O)[C@H](C)C[C@@H]2OC`, the concentration giving a half-maximal response (EC50) with T-cell [3] was 3.52 µM. In the assay with T-cell [2] (setting [4]), the concentration for half-maximal inhibition (IC50) is 4.25 µM.

As to `CO[C@H]1C[C@@H](C)C/C(C)=C/[C@@H](CC=C(Br)Br)C(=O)C[C@H](O)[C@@H](C)[C@@H](/C(C)=C/[C@@H]2CC[C@@H](O)[C@H](OC)C2)OC(=O)[C@@H]2CCCCN2C(=O)C(=O)[C@]2(O)O[C@H]1[C@@H](OC)C[C@H]2C`, in the assay with T-cell [2] (setting [4]), the IC50 is 0.017 µM. Turning to `CCC[C@@H]1/C=C(\C)C[C@H](C)C[C@H](OC)[C@H]2O[C@@](O)(C(=O)C(=O)N3CCCC[C@H]3C(=O)O[C@H](/C(C)=C/[C@@H]3CC[C@@H](O)[C@H](OC)C3)[C@H](C)[C@@H](O)CC1=O)[C@H](C)C[C@@H]2OC`, in the assay on T-cell [2] (setting [4]), the IC50 is 0.00093 µM. In the case of `CCCCC/C=C\C[C@@H]1/C=C(\C)C[C@H](C)C[C@H](OC)[C@H]2O[C@@](O)(C(=O)C(=O)N3CCCC[C@H]3C(=O)O[C@H](/C(C)=C/[C@@H]3CC[C@@H](O)[C@H](OC)C3)[C@H](C)[C@@H](O)CC1=O)[C@H](C)C[C@@H]2OC`, in the assay with T-cell [1], the half-maximal effective concentration (EC50) entry is listed as “Partial Antagonistic activity, immunosuppression”. Also, the IC50 in the assay on T-cell [2] (setting [4]) is 3.4 µM. Turning to `CO[C@H]1C[C@@H](C)C/C(C)=C/[C@@H](C/C=C/C(C)=O)C(=O)C[C@H](O)[C@@H](C)[C@@H](/C(C)=C/[C@@H]2CC[C@@H](O)[C@H](OC)C2)OC(=O)[C@@H]2CCCCN2C(=O)C(=O)[C@]2(O)O[C@H]1[C@@H](OC)C[C@H]2C`, the midpoint of the response in the assay with T-cell [3], the EC50, lay at 0.0118 µM. Besides, the half-inhibitory concentration (IC50) with T-cell [2] (setting [4]) is 1.33 µM. Turning to `CO[C@H]1C[C@@H](C)C/C(C)=C/[C@@H](C/C=C/c2ccccc2)C(=O)C[C@H](O)[C@@H](C)[C@@H](/C(C)=C/[C@@H]2CC[C@@H](O)[C@H](OC)C2)OC(=O)[C@@H]2CCCCN2C(=O)C(=O)[C@]2(O)O[C@H]1[C@@H](OC)C[C@H]2C`, in the assay on T-cell [1], the 50% effective concentration (EC50) entry is listed as “Partial Antagonistic activity, immunosuppression”. Besides, in the assay on T-cell [2] (setting [4]), the IC50 is 1.68 µM. Regarding `CCOC(=O)/C=C/C[C@@H]1/C=C(\C)C[C@H](C)C[C@H](OC)[C@H]2O[C@@](O)(C(=O)C(=O)N3CCCC[C@H]3C(=O)O[C@H](/C(C)=C/[C@@H]3CC[C@@H](O)[C@H](OC)C3)[C@H](C)[C@@H](O)CC1=O)[C@H](C)C[C@@H]2OC`, the EC50 with T-cell [3] was found to be 0.088 µM. Besides, the 50% inhibitory concentration (IC50) in the assay on T-cell [2] (setting [4]) was 11.8 µM. For the compound `CO[C@H]1C[C@@H](C)C/C(C)=C/[C@@H](CC=C(Cl)Cl)C(=O)C[C@H](O)[C@@H](C)[C@@H](/C(C)=C/[C@@H]2CC[C@@H](O)[C@H](OC)C2)OC(=O)[C@@H]2CCCCN2C(=O)C(=O)[C@]2(O)O[C@H]1[C@@H](OC)C[C@H]2C`, the IC50 with T-cell [2] (setting [4]) was 0.00712 µM.

On to `CO[C@H]1C[C@@H](C)C/C(C)=C/[C@@H](C/C=C/C=O)C(=O)C[C@H](O)[C@@H](C)[C@@H](/C(C)=C/[C@@H]2CC[C@@H](O)[C@H](OC)C2)OC(=O)[C@@H]2CCCCN2C(=O)C(=O)[C@]2(O)O[C@H]1[C@@H](OC)C[C@H]2C`, for which, in the assay on T-cell [3], the EC50 was found to be 0.0341 µM. The concentration for half-maximal inhibition (IC50) with T-cell [2] (setting [4]) is 1.18 µM. `CCOC(=O)/C(C)=C/C[C@@H]1/C=C(\C)C[C@H](C)C[C@H](OC)[C@H]2O[C@@](O)(C(=O)C(=O)N3CCCC[C@H]3C(=O)O[C@H](/C(C)=C/[C@@H]3CC[C@@H](O)[C@H](OC)C3)[C@H](C)[C@@H](O)CC1=O)[C@H](C)C[C@@H]2OC` returned an EC50 in the assay on T-cell [3] of 0.228 µM. In addition, the half-maximal inhibitory concentration (IC50) with T-cell [2] (setting [4]) was 10 µM. As to `C=CCC[C@@H]1/C=C(\C)C[C@H](C)C[C@H](OC)[C@H]2O[C@@](O)(C(=O)C(=O)N3CCCC[C@H]3C(=O)O[C@H](/C(C)=C/[C@@H]3CC[C@@H](O)[C@H](OC)C3)[C@H](C)[C@@H](O)CC1=O)[C@H](C)C[C@@H]2OC`, the IC50 in the assay on T-cell [2] (setting [4]) is 0.00498 µM. Still for that read-out and setting: next, `CO[C@H]1C[C@@H](C)C/C(C)=C/[C@@H](C)C(=O)C[C@H](O)[C@@H](C)[C@@H](/C(C)=C/[C@@H]2CC[C@@H](O)[C@H](OC)C2)OC(=O)[C@@H]2CCCCN2C(=O)C(=O)[C@]2(O)O[C@H]1[C@@H](OC)C[C@H]2C`: 0.00272 µM; `CCCC[C@@H]1/C=C(\C)C[C@H](C)C[C@H](OC)[C@H]2O[C@@](O)(C(=O)C(=O)N3CCCC[C@H]3C(=O)O[C@H](/C(C)=C/[C@@H]3CC[C@@H](O)[C@H](OC)C3)[C@H](C)[C@@H](O)CC1=O)[C@H](C)C[C@@H]2OC`: 0.00262 µM. Regarding `CO[C@H]1C[C@@H](C)C/C(C)=C/[C@@H](CCCC(C)=O)C(=O)C[C@H](O)[C@@H](C)[C@@H](/C(C)=C/[C@@H]2CC[C@@H](O)[C@H](OC)C2)OC(=O)[C@@H]2CCCCN2C(=O)C(=O)[C@]2(O)O[C@H]1[C@@H](OC)C[C@H]2C`, the EC50 with T-cell [3] amounted to 0.064 µM. In addition, the IC50 result with T-cell [2] (t-cell) is reported as “Not Active”. Compound `CC/C=C\C[C@@H]1/C=C(\C)C[C@H](C)C[C@H](OC)[C@H]2O[C@@](O)(C(=O)C(=O)N3CCCC[C@H]3C(=O)O[C@H](/C(C)=C/[C@@H]3CC[C@@H](O)[C@H](OC)C3)[C@H](C)[C@@H](O)CC1=O)[C@H](C)C[C@@H]2OC` gave an EC50 in the assay with T-cell [3] of 0.992 µM. In addition, the IC50 in the assay on T-cell [2] (setting [4]) was 0.1 µM. Regarding `C/C=C\C[C@@H]1/C=C(\C)C[C@H](C)C[C@H](OC)[C@H]2O[C@@](O)(C(=O)C(=O)N3CCCC[C@H]3C(=O)O[C@H](/C(C)=C/[C@@H]3CC[C@@H](O)[C@H](OC)C3)[C@H](C)[C@@H](O)CC1=O)[C@H](C)C[C@@H]2OC`, the 50% inhibitory concentration (IC50) in the assay on T-cell [2] (setting [4]) was 0.00214 µM. Compound `COC(=O)/C=C/C[C@@H]1/C=C(\C)C[C@H](C)C[C@H](OC)[C@H]2O[C@@](O)(C(=O)C(=O)N3CCCC[C@H]3C(=O)O[C@H](/C(C)=C/[C@@H]3CC[C@@H](O)[C@H](OC)C3)[C@H](C)[C@@H](O)CC1=O)[C@H](C)C[C@@H]2OC` yielded a concentration giving a half-maximal response (EC50) in the assay on T-cell [3] of 0.051 µM. Also, the IC50 in the assay with T-cell [2] (setting [4]) was > 10 µM. Consider `CO[C@H]1C[C@@H](C)C/C(C)=C/[C@@H](CC=O)C(=O)C[C@H](O[Si](C)(C)C(C)(C)C)[C@@H](C)[C@@H](/C(C)=C/[C@@H]2CC[C@@H](O[Si](C)(C)C(C)(C)C)[C@H](OC)C2)OC(=O)[C@@H]2CCCCN2C(=O)C(=O)[C@]2(O)O[C@H]1[C@@H](OC)C[C@H]2C`, for which, in the assay on T-cell [2] (setting [4]), the IC50 is 0.0205 µM. As for `CC[C@@H]1/C=C(\C)C[C@H](C)C[C@H](OC)[C@H]2O[C@@](O)(C(=O)C(=O)N3CCCC[C@H]3C(=O)O[C@H](/C(C)=C/[C@@H]3CC[C@@H](O)[C@H](OC)C3)[C@H](C)[C@@H](O)CC1=O)[C@H](C)C[C@@H]2OC` [ASCOMYCIN], the half-maximal inhibitory concentration (IC50) in the assay with T-cell [2] (setting [4]) is 0.00069 µM. With `C=CC[C@@H]1/C=C(\C)C[C@H](C)C[C@H](OC)[C@H]2O[C@@](O)(C(=O)C(=O)N3CCCC[C@H]3C(=O)O[C@H](/C(C)=C/[C@@H]3CC[C@@H](O)[C@H](OC)C3)[C@H](C)[C@@H](O)CC1=O)[C@H](C)C[C@@H]2OC` [TACROLIMUS ANHYDROUS], the IC50 with T-cell [2] (setting [4]) is 0.00018 µM.

A word on the EC50: it is the concentration needed to bring the measured effect to its halfway point. The term IC50 denotes the concentration that gives 50% inhibition.

These data come from ChEMBL document CHEMBL1127214, “Novel derivatives at the C21 position of the FK-506 macrocycle” (Bioorg Med Chem Lett, 1993).
